Source: patent US11919901B2 (Syndax Pharmaceuticals, Inc., priority 2021, dated 2024)

Test system: MV4-11 cells
Assay: Cell proliferation assay MV4;11 (CellTiter-Glo, 72 hours)
Assay type: cell-based
Settings: Homo sapiens; MV4;11 leukemia cell line, 72 hours; read-out: MV4; 11 IC50
Procedure, shortened: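 MV4-11 cells (MLL1-AF4 fusion) exposed 72 h at 37 °C to 8 compound concentrations, final 0.632–2000 nM. Viability by CellTiter-Glo luminescence as % of vehicle RLU; % max inhibition = 100 − viability at top concentration.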

CC(C)N(CCC#N)C(=O)c1cc(F)ccc1Oc1cncnc1N1CC2(CCN(C[C@@H]3CC[C@@H](NS(=O)(=O)c4ccccc4)CO3)CC2)C1 [Example 136, N-(2-Cyanoethyl)-5-fluoro-N-isopropyl-2-((4-(7-(((2S,5R)-5-(phenylsulfonamido)tetrahydro-2H-pyran-2-yl)methyl)-2,7-diazaspiro[3.5]nonan-2-yl)pyrimidin-5-yl)oxy)benzamide]
IC50: < 100 nM

CC(C)N(C)C(=O)c1cc(F)ccc1Oc1cncnc1N1CC2(CCN(C[C@@H]3CC[C@@H](NS(=O)(=O)N(C)C)CO3)CC2)C1 [Example 137, 2-((4-(7-(((2S,5R)-5-((N,N-Dimethylsulfamoyl)amino)tetrahydro-2H-pyran-2-yl)methyl)-2,7-diazaspiro[3.5]nonan-2-yl)pyrimidin-5-yl)oxy)-5-fluoro-N-isopropyl-N-methylbenzamide]
IC50: < 100 nM

CC(C)N(C)C(=O)c1cc(F)ccc1Oc1cncnc1N1CC2(CCN(C[C@@H]3CC[C@@H](NS(=O)(=O)N4CCC4)CO3)CC2)C1 [Example 138, 2-((4-(7-(((2S,5R)-5-(Azetidine-1-sulfonamido)tetrahydro-2H-pyran-2-yl)methyl)-2,7-diazaspiro[3.5]nonan-2-yl)pyrimidin-5-yl)oxy)-5-fluoro-N-isopropyl-N-methylbenzamide]
IC50: < 100 nM

CCN(C(=O)c1cc(F)ccc1Oc1cncnc1N1CC2(CCN(C[C@@H]3CC[C@@H](NS(=O)(=O)N(C)CC)CO3)CC2)C1)C(C)C [Example 140, N-Ethyl-2-((4-(7-(((2S,5R)-5-((N-ethyl-N-methylsulfamoyl)amino)tetrahydro-2H-pyran-2-yl)methyl)-2,7-diazaspiro[3.5]nonan-2-yl)pyrimidin-5-yl)oxy)-5-fluoro-N-isopropylbenzamide]
IC50: < 100 nM

CCNS(=O)(=O)N[C@@H]1CC[C@@H](CN2CCC3(CC2)CN(c2ncncc2Oc2ccc(F)cc2C(=O)N(CC)C(C)C)C3)OC1 [Example 141, N-Ethyl-2-((4-(7-(((2S,5R)-5-((N-ethylsulfamoyl)amino)tetrahydro-2H-pyran-2-yl)methyl)-2,7-diazaspiro[3.5]nonan-2-yl)pyrimidin-5-yl)oxy)-5-fluoro-N-isopropylbenzamide]
IC50: < 100 nM

CCN(C(=O)c1cc(F)ccc1Oc1cncnc1N1CC2(CCN(C[C@@H]3CC[C@@H](NS(=O)(=O)NC4CC4)CO3)CC2)C1)C(C)C [Example 142, 2-((4-(7-(((2S,5R)-5-((N-Cyclopropylsulfamoyl)amino)tetrahydro-2H-pyran-2-yl)methyl)-2,7-diazaspiro[3.5]nonan-2-yl)pyrimidin-5-yl)oxy)-N-ethyl-5-fluoro-N-isopropylbenzamide]
IC50: < 100 nM

CNS(=O)(=O)N[C@@H]1CC[C@@H](CN2CCC3(CC2)CN(c2ncncc2Oc2ccc(F)cc2C(=O)N(C(C)C)C(C)C)C3)OC1 [Example 143, 5-Fluoro-N,N-diisopropyl-2-((4-(7-(((2S,5R)-5-((N-methylsulfamoyl)amino)tetrahydro-2H-pyran-2-yl)methyl)-2,7-diazaspiro[3.5]nonan-2-yl)pyrimidin-5-yl)oxy)benzamide]
IC50: < 100 nM

CCNS(=O)(=O)N[C@@H]1CC[C@@H](CN2CCC3(CC2)CN(c2ncncc2Oc2ccc(F)cc2C(=O)N(C(C)C)C(C)C)C3)OC1 [Example 144, 2-((4-(7-(((2S,5R)-5-((N-Ethylsulfamoyl)amino)tetrahydro-2H-pyran-2-yl)methyl)-2,7-diazaspiro[3.5]nonan-2-yl)pyrimidin-5-yl)oxy)-5-fluoro-N,N-diisopropylbenzamide]
IC50: < 100 nM

CCNS(=O)(=O)N[C@@H]1CC[C@@H](CN2CCC3(CC2)CN(c2ncncc2Oc2ccc(F)cc2C(=O)N(C(C)C)C2CC2)C3)OC1 [Example 145, N-Cyclopropyl-2-((4-(7-(((2S,5R)-5-((N-ethylsulfamoyl)amino)tetrahydro-2H-pyran-2-yl)methyl)-2,7-diazaspiro[3.5]nonan-2-yl)pyrimidin-5-yl)oxy)-5-fluoro-N-isopropylbenzamide]
IC50: < 100 nM

CCNS(=O)(=O)N[C@@H]1CC[C@@H](CN2CCC3(CC2)CN(c2ncncc2Oc2ccc(F)cc2C(=O)N(CC(F)F)C(C)C)C3)OC1 [Example 147, N-(2,2-Difluoroethyl)-2-((4-(7-(((2S,5R)-5-((N-ethylsulfamoyl)amino)tetrahydro-2H-pyran-2-yl)methyl)-2,7-diazaspiro[3.5]nonan-2-yl)pyrimidin-5-yl)oxy)-5-fluoro-N-isopropylbenzamide]
IC50: < 100 nM

CC(C)N(CC(F)F)C(=O)c1cc(F)ccc1Oc1cncnc1N1CC2(CCN(C[C@@H]3CC[C@@H](NS(=O)(=O)NCC4CC4)CO3)CC2)C1 [Example 148, 2-((4-(7-(((2S,5R)-5-((N-(Cyclopropylmethyl)sulfamoyl)amino)tetrahydro-2H-pyran-2-yl)methyl)-2,7-diazaspiro[3.5]nonan-2-yl)pyrimidin-5-yl)oxy)-N-(2,2-difluoroethyl)-5-fluoro-N-isopropylbenzamide]
IC50: < 100 nM

CC(C)N(CC(F)F)C(=O)c1cc(F)ccc1Oc1cncnc1N1CC2(CCN(C[C@@H]3CC[C@@H](NS(=O)(=O)NC4CC4)CO3)CC2)C1 [Example 149, 2-((4-(7-(((2S,5R)-5-((N-Cyclopropylsulfamoyl)amino)tetrahydro-2H-pyran-2-yl)methyl)-2,7-diazaspiro[3.5]nonan-2-yl)pyrimidin-5-yl)oxy)-N-(2,2-difluoroethyl)-5-fluoro-N-isopropylbenzamide]
IC50: < 100 nM

CC(C)NS(=O)(=O)N[C@@H]1CC[C@@H](CN2CCC3(CC2)CN(c2ncncc2Oc2ccc(F)cc2C(=O)N(CC(F)F)C(C)C)C3)OC1 [Example 150, N-(2,2-Difluoroethyl)-5-fluoro-N-isopropyl-2-((4-(7-(((2S,5R)-5-((N-isopropylsulfamoyl)amino)tetrahydro-2H-pyran-2-yl)methyl)-2,7-diazaspiro[3.5]nonan-2-yl)pyrimidin-5-yl)oxy)benzamide]
IC50: < 100 nM

CCCNS(=O)(=O)N[C@@H]1CC[C@@H](CN2CCC3(CC2)CN(c2ncncc2Oc2ccc(F)cc2C(=O)N(CC(F)F)C(C)C)C3)OC1 [Example 151, N-(2,2-Difluoroethyl)-5-fluoro-N-isopropyl-2-((4-(7-(((2S,5R)-5-((N-propylsulfamoyl)amino)tetrahydro-2H-pyran-2-yl)methyl)-2,7-diazaspiro[3.5]nonan-2-yl)pyrimidin-5-yl)oxy)benzamide]
IC50: < 100 nM

CCS(=O)(=O)N[C@@H]1CC[C@@H](CN2CCC3(CC2)CN(c2ncncc2Oc2ccc(F)cc2C(=O)N(CC(F)(F)F)C(C)C)C3)OC1 [Example 152, 2-((4-(7-(((2S,5R)-5-(Ethylsulfonamido)tetrahydro-2H-pyran-2-yl)methyl)-2,7-diazaspiro[3.5]nonan-2-yl)pyrimidin-5-yl)oxy)-5-fluoro-N-isopropyl-N-(2,2,2-trifluoroethyl)benzamide]
IC50: < 100 nM

CCNS(=O)(=O)N[C@@H]1CC[C@@H](CN2CCC3(CC2)CN(c2ncncc2Oc2ccc(F)cc2C(=O)N(CC(F)(F)F)C(C)C)C3)OC1 [Example 153, 2-((4-(7-(((2S,5R)-5-((N-Ethylsulfamoyl)amino)tetrahydro-2H-pyran-2-yl)methyl)-2,7-diazaspiro[3.5]nonan-2-yl)pyrimidin-5-yl)oxy)-5-fluoro-N-isopropyl-N-(2,2,2-trifluoroethyl)benzamide]
IC50: < 100 nM

CNS(=O)(=O)N[C@@H]1CC[C@@H](CN2CCC3(CC2)CN(c2ncncc2Oc2ccc(F)cc2C(=O)N(C(C)C)C2CC(F)(F)C2)C3)OC1 [Example 154, N-(3,3-Difluorocyclobutyl)-5-fluoro-N-isopropyl-2-((4-(7-(((2S,5R)-5-((N-methylsulfamoyl)amino)tetrahydro-2H-pyran-2-yl)methyl)-2,7-diazaspiro[3.5]nonan-2-yl)pyrimidin-5-yl)oxy)benzamide]
IC50: < 100 nM

CCNS(=O)(=O)N[C@@H]1CC[C@@H](CN2CCC3(CC2)CN(c2ncncc2Oc2ccc(F)cc2C(=O)N(C(C)C)C2CC(F)(F)C2)C3)OC1 [Example 155, N-(3,3-Difluorocyclobutyl)-2-((4-(7-(((2S,5R)-5-((N-ethylsulfamoyl)amino)tetrahydro-2H-pyran-2-yl)methyl)-2,7-diazaspiro[3.5]nonan-2-yl)pyrimidin-5-yl)oxy)-5-fluoro-N-isopropylbenzamide]
IC50: < 100 nM

C[C@@H]1COC[C@@H](C)N1C(=O)c1cc(F)ccc1Oc1cncnc1N1CC2(CCN(C[C@@H]3CC[C@@H](NS(=O)(=O)NCC(F)(F)F)CO3)CC2)C1 [Example 157, {[(3R,6S)-6-{[2-(5-{2-[(3R,5R)-3,5-Dimethylmorpholine-4-carbonyl]-4-fluorophenoxy}pyrimidin-4-yl)-2,7-diazaspiro[3.5]nonan-7-yl]methyl}oxan-3-yl]sulfamoyl}(2,2,2-trifluoroethyl)amine]
IC50: < 100 nM

C[C@@H]1COC[C@@H](C)N1C(=O)c1cc(F)ccc1Oc1cncnc1N1CC2(CCN(C[C@@H]3CC[C@@H](NS(=O)(=O)NCC4CC4)CO3)CC2)C1 [Example 158, (Cyclopropylmethyl)({[(3R,6S)-6-{[2-(5-{2-[(3R,5R)-3,5-dimethylmorpholine-4-carbonyl]-4-fluorophenoxy}pyrimidin-4-yl)-2,7-diazaspiro[3.5]nonan-7-yl]methyl}oxan-3-yl]sulfamoyl})amine]
IC50: < 100 nM

C[C@@H]1COC[C@@H](C)N1C(=O)c1cc(F)ccc1Oc1cncnc1N1CC2(CCN(C[C@@H]3CC[C@@H](NS(=O)(=O)NC4CC4)CO3)CC2)C1 [Example 159, N-[(3R,6S)-6-{[2-(5-{2-[(3R,5R)-3,5-Dimethylmorpholine-4-carbonyl]-4-fluorophenoxy}pyrimidin-4-yl)-2,7-diazaspiro[3.5]nonan-7-yl]methyl}oxan-3-yl](cyclopropylamino)sulfonamide]
IC50: < 100 nM

C[C@@H]1COC[C@H](C)N1C(=O)c1cc(F)ccc1Oc1cncnc1N1CC2(CCN(C[C@@H]3CC[C@@H](NS(=O)(=O)N(C)C)CO3)CC2)C1 [Example 160, {[(3R,6S)-6-{[2-(5-{2-[(3R,5S)-3,5-Dimethylmorpholine-4-carbonyl]-4-fluorophenoxy}pyrimidin-4-yl)-2,7-diazaspiro[3.5]nonan-7-yl]methyl}oxan-3-yl]sulfamoyl}dimethylamine]
IC50: < 100 nM
